From patent US11718618B2, “Substituted pyrido[2,1-a]isoquinolines as VMAT2 inhibitors” (priority 2021, dated 2023)
Like-named read-outs stand apart in the source and are kept apart here.

Legend:
human VMAT2 = human VMAT2 (Homo sapiens (Human), UniProt Q05940); experiment: VMAT2 radioligand binding, 3H-dihydrotetrabenazine competition on human platelet homogenate
Method in brief: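 Human platelet homogenate (30 μg membrane protein/well) in DPBS with 1 mM EDTA, pH 7.4; twelve test-compound concentrations competed against 10 nM ³H-dihydrotetrabenazine. Incubated 90 min at 25 °C, bound radioligand collected by filtration on PEI-pretreated glass-fibre filters and counted by scintillation; Ki derived.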

[1] = Stability of compounds in human liver microsomes; format: in vitro ADME; conditions: for CLint scaled at 0.5 μM / half-life at 0.5 μM: both sexes, pH 7.4; for CLint scaled at 0.5 μM: liver microsomes, calculated from HLM half-life, read-out: HLM Scaled Intrinsic Clearance; for CLint scaled at 0.5 μM / Predicted Max. Bioavailability (% F) / HLM Predicted Systemic Clearance: human; for half-life at 0.5 μM: 0.5 μM compound, 0.5 mg/mL human liver microsomes, 37° C., maxed at 420 minutes, read-out: HLM Elimination half-life (t1/2, min); for Predicted Max. Bioavailability (% F): predicted from HLM data; for HLM Predicted Systemic Clearance: scaled from HLM half-life (Obach method)
Procedure: A test compound (0.5 μM) was incubated with pooled mixed gender liver microsomes from humans (0.5 mg/mL total protein) at 37° C. in the presence of an NADPH-generating system containing 50 mM, pH 7.4 potassium phosphate buffer, 3 mM magnesium chloride, 1 mM EDTA, 1 mM NADP, 5 mM glusose-6-phosphate, and 1 Unit/mL glucose-6-phosphate dehydrogenase. All concentrations were relative to the final incubation volume of 125 μL. Incubations were conducted at 37° C. for 0, 5, 10, 20, 40, and 60 minutes in a water bath and terminated by rapid mixing with 150 μL of ice-cold acetonitrile containing internal standard. Precipitated proteins were removed by centrifugation prior to LC-MS/MS analysis. Aliquots of the resulting supernatant fractions were analyzed by LC-MS/MS monitoring for depletion of parent compound. The resultant peak area ratio versus time data was fitted to a non-linear regression using XLfit Scientific Curve Fitting Software (IDBS Ltd., Surrey, UK) and the elimination half-life (t1/2, min) was calculated from the slope. […] Additional values calculated included predicted extraction ratio and predicted maximum bioavailability.

[2] = 10 nM 3H-dihydrotetrabenazine, human platelet homogenate, 25° C., 90 minutes, read-out: VMAT2 Ki

human VMAT2, sequence (Q05940 whole entry): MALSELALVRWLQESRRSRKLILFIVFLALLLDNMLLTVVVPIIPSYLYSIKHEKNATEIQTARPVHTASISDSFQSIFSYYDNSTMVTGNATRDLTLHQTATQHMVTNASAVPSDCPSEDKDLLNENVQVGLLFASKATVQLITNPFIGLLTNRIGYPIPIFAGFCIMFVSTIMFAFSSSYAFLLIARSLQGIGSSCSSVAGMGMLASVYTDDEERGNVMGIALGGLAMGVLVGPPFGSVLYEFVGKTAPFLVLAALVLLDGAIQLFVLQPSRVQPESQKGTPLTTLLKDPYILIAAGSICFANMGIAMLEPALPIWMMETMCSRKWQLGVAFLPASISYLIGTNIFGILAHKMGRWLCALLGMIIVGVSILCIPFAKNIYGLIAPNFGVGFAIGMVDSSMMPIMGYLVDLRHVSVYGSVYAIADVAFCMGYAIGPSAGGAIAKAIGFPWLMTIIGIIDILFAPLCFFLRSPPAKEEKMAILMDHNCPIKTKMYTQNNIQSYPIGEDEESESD

Row | SMILES | Ki (human VMAT2; [2]) [nM] | CLint scaled at 0.5 μM [1] [mL/min/kg] | half-life at 0.5 μM [1] [min] | Predicted Max. Bioavailability (% F) [1] [% F] | HLM Predicted Systemic Clearance [1] [mL/min/kg] | Ki (human VMAT2) [nM]
1 | COc1cc2c(cc1O[C@H]1CCOC1)CCN1C[C@@H](CC(C)(C)C)[C@H](O)C[C@H]21 [Compound 4-54, (2R,3R,11bR)-3-(2,2-dimethylpropyl)-10-methoxy-9-[(3S)-oxolan-3-yloxy]-1H,2H,3H,4H,6H,7H,11bH-pyrido[2,1-a]isoquinolin-2-ol] | 12 | 7.59 | 164 | 73 | 5.5 | –
2 | C=C(C)COc1cc2c(cc1OC)[C@H]1C[C@@H](O)[C@H](CC(C)(C)C)CN1CC2 [Compound 4-56, (2R,3R,11bR)-3-(2,2-dimethylpropyl)-10-methoxy-9-[(2-methylprop-2-en-1-yl)oxy]-1H,2H,3H,4H,6H,7H,11bH-pyrido[2,1-a]isoquinolin-2-ol] | 0.52 | 121 | 10 | 14 | 17.16 | –
3 | COc1cc2c(cc1OCC1(C(F)F)CC1)CCN1C[C@@H](CC(C)(C)C)[C@H](O)C[C@H]21 [Compound 4-57, (2R,3R,11bR)-9-{[1-(difluoromethyl)cyclo-propyl]methoxy}-3-(2,2-dimethylpropyl)-10-methoxy-1H,2H,3H,4H,6H,7H,11bH-pyrido[2,1-a]isoquinolin-2-ol] | 0.93 | ≤ 2.97 | ≥ 420 | ≥87 | ≤2.59 | –
4 | CC[C@@H](O)COc1cc2c(cc1OC)[C@H]1C[C@@H](O)[C@H](CC(C)(C)C)CN1CC2 [Compound 4-58, (2R,3R,11bR)-3-(2,2-dimethylpropyl)-9-[(2R)-2-hydroxybutoxy]-10-methoxy-1H,2H,3H,4H,6H,7H,11bH-pyrido[2,1-a]isoquinolin-2-ol] | – | 5.99 | 208 | 77 | 4.61 | 1.1
5 | COc1cc2c(cc1OCc1ccc(C#N)o1)CCN1C[C@@H](CC(C)(C)C)[C@H](O)C[C@H]21 [Compound 4-59, 5-({[(2R,3R,11bR)-3-(2,2-dimethylpropyl)-2-hydroxy-10-methoxy-1H,2H,3H,4H,6H,7H,11bH-pyrido[2,1-a]isoquinolin-9-yl]oxy}methyl)furan-2-carbonitrile] | 1.5 | 24.8 | 50 | 45 | 11.08 | –
6 | COc1cc2c(cc1OCc1ccccc1)CCN1C[C@@H](CC(C)(C)C)[C@H](O)C[C@H]21 [Compound 4-60, (2R,3R,11bR)-9-(benzyloxy)-3-(2,2-dimethylpropyl)-10-methoxy-1H,2H,3H,4H,6H,7H,11bH-pyrido[2,1-a]isoquinolin-2-ol] | 3.1 | 33.9 | 37 | 37 | 12.58 | –
7 | COc1cc2c(cc1OCC1(F)CCC1)CCN1C[C@@H](CC(C)(C)C)[C@H](O)C[C@H]21 [Compound 4-61, (2R,3R,11bR)-3-(2,2-dimethylpropyl)-9-[(1-fluorocyclobutyl)methoxy]-10-methoxy-1H,2H,3H,4H,6H,7H,11bH-pyrido[2,1-a]isoquinolin-2-ol] | 3.5 | 42 | 30 | 32 | 13.55 | –
8 | COc1cc2c(cc1OCC(O)CC(F)(F)F)CCN1C[C@@H](CC(C)(C)C)[C@H](O)C[C@H]21 (stereo partly drawn) [Compound 4-62, (2R,3R,11bR)-3-(2,2-dimethylpropyl)-10-methoxy-9-(4,4,4-trifluoro-2-hydroxybutoxy)-1H,2H,3H,4H,6H,7H,11bH-pyrido[2,1-a]isoquinolin-2-ol] | 3.7 | ≤ 2.97 | ≥ 420 | ≥87 | ≤2.59 | –
9 | COc1cc2c(cc1OCc1ccc(F)cc1)CCN1C[C@@H](CC(C)(C)C)[C@H](O)C[C@H]21 [Compound 4-63, (2R,3R,11bR)-3-(2,2-dimethylpropyl)-9-[(4-fluorophenyl)methoxy]-10-methoxy-1H,2H,3H,4H,6H,7H,11bH-pyrido[2,1-a]isoquinolin-2-ol] | 4.2 | 42.3 | 29 | 32 | 13.58 | –
10 | COc1cc2c(cc1OCc1cccc(F)c1)CCN1C[C@@H](CC(C)(C)C)[C@H](O)C[C@H]21 [Compound 4-64, (2R,3R,11bR)-3-(2,2-dimethylpropyl)-9-[(3-fluorophenyl)methoxy]-10-methoxy-1H,2H,3H,4H,6H,7H,11bH-pyrido[2,1-a]isoquinolin-2-ol] | 5.5 | 38 | 33 | 35 | 13.1 | –
11 | COc1cc2c(cc1OCC(F)(F)Cl)CCN1C[C@@H](CC(C)(C)C)[C@H](O)C[C@H]21 [Compound 4-65, (2R,3R,11bR)-9-(2-chloro-2,2-difluoroethoxy)-3-(2,2-dimethylpropyl)-10-methoxy-1H,2H,3H,4H,6H,7H,11bH-pyrido[2,1-a]isoquinolin-2-ol] | 8.7 | 5.5 | 227 | 78 | 4.31 | –
12 | COc1cc2c(cc1OCC(C)(O)C(F)(F)F)CCN1C[C@@H](CC(C)(C)C)[C@H](O)C[C@H]21 (stereo partly drawn) [Compound 4-66, (2R,3R,11bR)-3-(2,2-dimethylpropyl)-10-methoxy-9-(3,3,3-trifluoro-2-hydroxy-2-methylpropoxy)-1H,2H,3H,4H,6H,7H,11bH-pyrido[2,1-a]isoquinolin-2-ol] | 10 | ≤ 2.97 | ≥ 420 | ≥87 | ≤2.59 | –
13 | COc1cc2c(cc1OCC13CC(C(F)(F)F)(C1)C3)CCN1C[C@@H](CC(C)(C)C)[C@H](O)C[C@H]21 [Compound 4-67, (2R,3R,11bR)-3-(2,2-dimethylpropyl)-10-methoxy-9-{[3-(trifluoromethyl)bi-cyclo[1.1.1]pentan-1-yl]methoxy}-1H,2H,3H,4H,6H,7H,11bH-pyrido[2,1-a]isoquinolin-2-ol] | 14 | ≤ 2.97 | ≥ 420 | ≥87 | ≤2.59 | –
14 | CC[C@H](O)COc1cc2c(cc1OC)[C@H]1C[C@@H](O)[C@H](CC(C)(C)C)CN1CC2 [Compound 4-68, (2R,3R,11bR)-3-(2,2-dimethylpropyl)-9-[(2S)-2-hydroxybutoxy]-10-methoxy-1H,2H,3H,4H,6H,7H,11bH-pyrido[2,1-a]isoquinolin-2-ol] | 29 | 6.37 | 196 | 76 | 4.83 | –
